From the supplement of paper PMC7806825
± gives the standard deviation of the averaged measurements. One block for each molecule: values may come before it.

Tested on: McpC ligand-binding domain (Salmonella Typhimurium SL1344)
Experiment: protein melting temperature (Tm) in presence of compound (degrees C); higher = more thermal stabilisation (possible ligand binding)
Conditions: compound stock concentration: 10-20 mM, 2 uL in 10 uL reaction

Structure (SMILES): Cc1ncc(C[n+]2csc(CCOP(=O)(O)OP(=O)(O)O)c2C)c(N)n1 [Thiamine Pyrophosphate]
- protein melting temperature (Biolog plate: PM05): 43.7

Structure (SMILES): OP(O)(O)=S [Thiophosphate]
- protein melting temperature (Biolog plate: PM04A): 43.88 ± 0.26

Structure (SMILES): O=S(O)(O)=S [Thiosulfate]
- protein melting temperature (Biolog plate: PM04A): 42.8

Structure (SMILES): NC(N)=S [Thiourea]
- protein melting temperature (Biolog plate: PM04A): 44.6

Structure (SMILES): Cc1cn([C@H]2C[C@H](OP(=O)(O)O)[C@@H](CO)O2)c(=O)[nH]c1=O [Thymidine 3`-Monophosphate]
- protein melting temperature (Biolog plate: PM04A): 43.6

Structure (SMILES): Cc1cn([C@H]2C[C@H](O)[C@@H](COP(=O)(O)O)O2)c(=O)[nH]c1=O [Thymidine 5`-Monophosphate]
- protein melting temperature (Biolog plate: PM04A): 43.7

Structure (SMILES): Cc1cn([C@H]2C[C@H](O)[C@@H](CO)O2)c(=O)[nH]c1=O [Thymidine]
- protein melting temperature (Biolog plate: PM01): 44.6
- protein melting temperature (Biolog plate: PM03B): 45.1
- protein melting temperature (Biolog plate: PM05): 44.7

Structure (SMILES): Cc1c[nH]c(=O)[nH]c1=O [Thymine]
- protein melting temperature (Biolog plate: PM03B): 45.1
- protein melting temperature (Biolog plate: PM05): 43

Structure (SMILES): O=C(O)CC(CC(=O)O)C(=O)O [Tricarballylic acid]
- protein melting temperature (Biolog plate: PM01): 44.3

Structure (SMILES): CCOP(=O)(OCC)OCC [Triethyl Phosphate]
- protein melting temperature (Biolog plate: PM04A): 44.9

Structure (SMILES): O=P1(O)OP(=O)(O)OP(=O)(O)O1 [Trimetaphosphate]
- protein melting temperature (Biolog plate: PM04A): 44.7

Structure (SMILES): O=C(CO)[C@@H](O[C@H]1O[C@H](CO)[C@@H](O)[C@H](O)[C@H]1O)[C@H](O)[C@H](O)CO [Turanose]
- protein melting temperature (Biolog plate: PM02A): 44.1

Structure (SMILES): CCCCCCCC/C=C\CCCCCCCC(=O)OCCOCC(OCCO)C1OCC(OCCO)C1OCCO (stereo not given) [Tween 80]
- protein melting temperature (Biolog plate: PM01): 45.3
- protein melting temperature (Biolog plate: PM05): 43.9

Structure (SMILES): NCCc1ccc(O)cc1 [Tyramine]
- protein melting temperature (Biolog plate: PM01): 43.9
- protein melting temperature (Biolog plate: PM03B): 44.8

Structure (SMILES): O=c1cc[nH]c(=O)[nH]1 [Uracil]
- protein melting temperature (Biolog plate: PM03B): 45.7
- protein melting temperature (Biolog plate: PM05): 42.7

Structure (SMILES): NC(N)=O [Urea]
- protein melting temperature (Biolog plate: PM03B): 46.5

Structure (SMILES): Oc1nc(O)c2nc(O)[nH]c2n1 [Uric acid]
- protein melting temperature (Biolog plate: PM03B): 44.4

Structure (SMILES): O=c1ccn([C@@H]2O[C@H](CO)[C@@H](O)[C@H]2OP(=O)(O)O)c(=O)[nH]1 [Uridine 2`-Monophosphate]
- protein melting temperature (Biolog plate: PM04A): 43.8

Structure (SMILES): O=c1ccn([C@@H]2O[C@H](CO)[C@@H](OP(=O)(O)O)[C@H]2O)c(=O)[nH]1 [Uridine 3`-Monophosphate]
- protein melting temperature (Biolog plate: PM04A): 43.5

Continued, values first:

- protein melting temperature (Biolog plate: PM03B): 44.5
Structure (SMILES): O=c1[nH]c(=O)c2nc[nH]c2[nH]1 [Xanthine]

- protein melting temperature (Biolog plate: PM03B): 44.3
Structure (SMILES): OC[C@H]1O[C@@H](n2cnc3c(O)nc(O)nc32)[C@H](O)[C@@H]1O [Xanthosine]

- protein melting temperature (Biolog plate: PM02A): 44.3
Structure (SMILES): OC[C@@H](O)[C@H](O)[C@@H](O)CO [Xylitol]

- protein melting temperature (Biolog plate: PM01): 44.9
- protein melting temperature (Biolog plate: PM05): 42.9
Structure (SMILES): OC[C@H]1O[C@H](O)[C@H](O)[C@@H](O)[C@@H]1O [a-D-Glucose]

- protein melting temperature (Biolog plate: PM01): 44.6
- protein melting temperature (Biolog plate: PM05): 43.7
Structure (SMILES): CC[C@H](O)C(=O)O [a-Hydroxybutyric acid]

- protein melting temperature (Biolog plate: PM01): 45.3
Structure (SMILES): O=C1CC[C@@H](C(=O)O)O1 [a-Hydroxyglutaric acid-g-Lactone]

- protein melting temperature (Biolog plate: PM02A): 44.3
Structure (SMILES): CCCC(=O)C(=O)O [a-Keto-Valeric acid]

- protein melting temperature (Biolog plate: PM01): 43.9
- protein melting temperature (Biolog plate: PM05): 44
Structure (SMILES): CCC(=O)C(=O)O [a-Ketobutyric acid]

- protein melting temperature (Biolog plate: PM01): 44.9
Structure (SMILES): CO[C@H]1O[C@H](CO)[C@H](O)[C@H](O)[C@H]1O [a-Methyl-D-Galactoside]

- protein melting temperature (Biolog plate: PM02A): 44.2
Structure (SMILES): CO[C@H]1O[C@H](CO)[C@@H](O)[C@H](O)[C@H]1O [a-Methyl-D-Glucoside]

- protein melting temperature (Biolog plate: PM02A): 44.9
Structure (SMILES): CO[C@H]1O[C@H](CO)[C@@H](O)[C@H](O)[C@@H]1O [a-Methyl-D-Mannoside]

- protein melting temperature (Biolog plate: PM02A): 45.4
Structure (SMILES): OC[C@H]1O[C@@H]2O[C@H]3[C@H](O)[C@@H](O)[C@@H](O[C@H]4[C@H](O)[C@@H](O)[C@@H](O[C@H]5[C@H](O)[C@@H](O)[C@@H](O[C@H]6[C@H](O)[C@@H](O)[C@@H](O[C@H]7[C@H](O)[C@@H](O)[C@@H](O[C@H]8[C@H](O)[C@@H](O)[C@@H](O[C@H]1[C@H](O)[C@H]2O)O[C@@H]8CO)O[C@@H]7CO)O[C@@H]6CO)O[C@@H]5CO)O[C@@H]4CO)O[C@@H]3CO [b-Cyclodextrin]
